# Laboratory results as given in patent publication US9381204B2, “Pharmaceutical compositions containing phosphatidylserine and curcumin” (FIDIA FARMACEUTICI S.P.A., priority 2012, dated 2016).
# What was measured:
# [1] = test system: murine microglia BV-2 cells; assay: NO release by LPS-activated BV-2 microglia (Griess test); type: cell-based; details: 0.1 μg/ml LPS overnight; for effect on release of NO into the culture medium (FIG. 1): PS 10 and 30 μM, curcumin 2.5 and 5 μM
# Procedure: PS (sodium salt), produced and purified according to EP1890706 (example 3), was resuspended in 2:1 chloroform/methanol, dried by evaporation and resuspended in PBS at the final concentration of 100 μM. 95% pure curcumin, prepared in DMSO at the final active ingredient concentration of 20 mM, was used for this experiment.
# An in vitro glial activation model using the murine microglia BV-2 cell line was selected for this experiment:
# 50,000 cells/well were initially seeded in 96-well plates and cultured in DMEM containing 10% FCS, glutamine and antibiotics at 37° C. If activated with LPS (lipopolysaccharide, an endotoxin of Gram-negative bacterial, normally used as pro-inflammatory stimulus both in vitro and in vivo), these cells release NO into the culture medium; the experiment therefore involved stimulating them with 0.1 μg/ml LPS overnight in the presence or absence of PS (10 and 30 μM) or curcumin (2.5 and 5 μM) at different concentrations.
# Finally, to evaluate the synergy between the two active constituents, the PS/curcumin combination was tested in the presence of LPS 0.1 μg/ml (as described above):
# 10 μM PS+2.5 μM curcumin, and
# The final NO content in the medium was measured with the Griess test: briefly, aliquots of medium were mixed with equal volumes of Griess reagent (0.1% N(1-naphthyl)ethylenediamine dihydrochloride, 1% sulphanylamide and 0.4M HCl). After 15 minutes' reaction, the absorbance was measured at 570 nm.
# microglia BV-2 cells = assay: IL-1β release from LPS-stimulated BV-2 cells (ELISA); type: cell-based, murine; details: administered individually, 0.1 μg/ml LPS 16 hours; for inhibition of IL-1β release (FIG. 4): 1 μM or 5 μM; for inhibition of IL-1β release at the higher concentration (FIG. 4): 5 μM
# Procedure: The experiment was conducted in two steps, and was designed to evaluate the effect on in vitro release of IL-1β from microglia BV-2 cells stimulated with LPS after administration of PS and curcumin. IL-1β is a cytokine strongly involved in the inflammatory processes underlying both osteoarticular disorders and neurodegeneration.
# Murine microglial BV-2 cells were stimulated as described in Example 3 (0.1 μg/ml LPS for 16 hours) and then treated with PS and curcumin at the concentration of 1 μM or 5 μM. The IL-1β levels were determined by ELISA assay. The control (CTRL) was represented by cells stimulated with LPS but not treated.
# At the second stage of the experiment the effects of the combination of the two substances were evaluated on the same parameter according to the same protocol.
# [2] = test system: neural progenitor cells (NPCs); assay: Neuronal differentiation (βIII tubulin) of NPCs exposed to medium of LPS-activated microglia; type: cell-based, mice; details: alone, 1 and 5 μM; NPCs with medium of LPS-activated microglia, 6 days
# Procedure: Cultures of stem cells/neural progenitor cells (NPCs) obtained from the subventricular zone of adult mice were used. The NPCs were cultured under conditions of differentiation by mechanical dissociation of the neurospheres and seeding of the individual cells on plates coated with poly-ornithine and laminin in a culture medium only containing factor bFGF, according to state-of-the-art techniques.
# The NPC cultures thus obtained were divided into aliquots, each of which was treated differently, as follows:
# b) treatment a) and PS and curcumin administered separately at different concentrations;
# c) treatment a) and PS/curcumin combined at different relative concentrations.
# The control was represented by untreated NPC cells.
# Neuronal differentiation was evaluated after 6 days, by immunocytochemical analysis with antibodies directed against the specific marker βIII tubulin, extrapolating the % concentration of protein present in the medium.
Molecule,effect on release of NO into the culture medium (FIG. 1) [1],inhibition of NO release into the culture medium ([1]; single treatment of 10 μM PS) [%],inhibition of IL-1β release (FIG. 4) (microglia BV-2 cells),inhibition of IL-1β release at the higher concentration (FIG. 4) (microglia BV-2 cells),percentage of cells positive to βIII tubulin (FIG. 6) [2],"inhibition at 5 µM ([1]; Mus musculus, single treatment of 5 μM curcumin, read-out: inhibition of NO release into the culture medium) [%]"
phosphatidylserine [PS],inhibit the release of NO into the medium in a dose-dependent manner,≤ 10,"neither PS nor curcumin, administered individually, significantly inhibits the release of IL-1β",limited effect,did not differ significantly from that observed in the presence of LPS alone,–
"COc1cc(C=CC(=O)CC(=O)C=Cc2ccc(O)c(OC)c2)ccc1O [curcumin, 1,7-bis[4-hydroxy-3-methoxyphenyl]-1,6-heptadiene-3,5-dione]",inhibit the release of NO into the medium in a dose-dependent manner,–,"neither PS nor curcumin, administered individually, significantly inhibits the release of IL-1β",limited effect,did not differ significantly from that observed in the presence of LPS alone,< 20
